Data set [1] relates to peroxidase. Kind of data set: H1 NMR relaxometry / relaxivity enhancement after peroxidase treatment. Type of data set: biochemical. As to conditions: equimolar amount added to the peroxidase reaction.
Data set [2] can be described thus: Chelex-100 resin treatment to test dissociation of gadolinium from the DOTA(Gd) complex. The class given is physicochemical. The note with it: compared to control with no peroxidase added. From the text: By plotting relaxation data against the concentration of gadolinium, a raise of 1/T1 and I/T2 of 2 fold (at 0.47 T) and 2.7 fold (1.5 T) in the case of substrate I, and 3.5 (at 0.47 T) in the case of substrate II has been measured (Table 1). […] To find out whether the increase in relaxivity is a result of dissociation of gadolinium cation from a DOTA(Gd) complex, we treated Tyr-DOTA(Gd) or Dopamine-DOTA(Gd) with Chelex-100 resin and compared it to the control with no peroxidase added. No difference in T1 relaxation time of substrate solutions before and after the treatment was observed.

The test system of data set [3] is peroxidase. Kind of data set: Kinetics of peroxidase-mediated oxidation in excess hydrogen peroxide, spectrophotometry at 400 nm. The class given is biochemical. As to conditions: absorbance at 400 nm. The procedure: Substrates I and II at concentrations of 10-50 μM were treated by peroxidase (0.1-100 nM) and an excess of hydrogen peroxide (3.5 mM) in 10 mM phosphate-buffered saline (PBS) or 0.05 M sodium phosphate pH 6.8. In some experiments, a peroxide-generating system (5 mM glucose, glucose oxidase and lactoperoxidase) was used. In inhibition studies, 2 mM Gd-free substrate, tyramine, dopamine, or methyldopamine were added as competitive inhibitors. The reaction was monitored by spectrophotometry at 400 nm and by NMR spectrometry (Minispec 120 Bruker). Magnetic resonance imaging was performed using a 1.5 T Signa GE system and surface or knee coils. Inversion-recovery pulse sequences (TE 11 ms/TR 1000 ms/TI 50-600 ms) were used for T1 measurements. Spin-echo sequence (TE 13 ms/TR 400 ms/2 NEX, Matrix 256×160) was optimal for magnetic resonance imaging of signal amplification. Magnetic resonance signal intensity was measured using region-of-interest approach and 16-bit TIFF images. […]
Kinetics of oxidation of tyraminyl-DOTA(Gd), I, or hydroxytyraminyl-DOTA(Gd), II, in the presence of the excess of hydrogen peroxide was studied using spectrophotometry. The increase in absorbance at 400 nm in the case of both gadolinium-labeled substrates was rapid, indicating efficient oxidation of both substrates, and gave similar pseudo-first order kinetic constants: k1app=0.0125 s^−1 (I) and 0.013 s^−1 (II).

Data set [4] concerns digoxigenin-labeled Fab2' fragment of monoclonal antibody. The data set is described as follows: MRAMP ELISA-like assay with adsorbed DIG-labeled Fab2' fragment and anti-digoxigenin-peroxidase conjugate. The note with it: 0.4 mM substrate, 3.5 mM hydrogen peroxide, 96-well plate. The procedure: Fab2′ fragment of H18/7 monoclonal anti-human E selectin antibody was prepared using pepsin digestion, and then purified. Labeling of Fab2′-fragment with digoxigenin (DIG) hydroxysuccinimide ester (HSE) (Roche Molecular Diagnostics) was carried out according to the vendor's instructions. One ng to 1000 ng of DIG-labeled antibody was serially diluted with 0.01 M sodium carbonate (pH 9) in a 96-well plate (Nunc) and adsorbed at 37° C. overnight. Wells were washed with PBS containing 0.1% Tween 20 (PBST) blocked with BSA solution, and anti-DIG antibody-peroxidase conjugate (Roche, diluted 1:1000) was incubated in wells in PBS-B for 1 hour. Washed wells were filled with 200 μl of 0.4 mM substrate I or II and hydrogen peroxide (3.5 mM) and incubated for 30 min before imaging. Cells (2 million/sample) were treated sequentially with IL-1β, anti-E selectin DIG-labeled Fab2′-fragment, and anti-DIG antibody-peroxidase. Cell suspensions were prepared in PBS and substrates were used as above. Cells were pelleted in Eppendorf tubes (0.5 ml), and then imaged as described above. […] Magnetic resonance signal intensity was quantified as described above and compared to that of aqueous Gd solutions.
In the next series of experiments, we determined whether MRAMP could be utilized to detect a model ligand in an ELISA-like assay. […]
(In an ELISA, binding on a coated surface is turned into a signal by an enzyme label.)

Data set [5] has as its system peroxidase. The data set is described as follows: H1 NMR relaxometry / relaxivity enhancement after peroxidase treatment. Type of data set: biochemical. As to conditions: for r1, peroxidase: after peroxidase; for r1, control: no peroxidase. The procedure: Substrates I and II at concentrations of 10-50 μM were treated by peroxidase (0.1-100 nM) and an excess of hydrogen peroxide (3.5 mM) in 10 mM phosphate-buffered saline (PBS) or 0.05 M sodium phosphate pH 6.8. In some experiments, a peroxide-generating system (5 mM glucose, glucose oxidase and lactoperoxidase) was used. In inhibition studies, 2 mM Gd-free substrate, tyramine, dopamine, or methyldopamine were added as competitive inhibitors. The reaction was monitored by spectrophotometry at 400 nm and by NMR spectrometry (Minispec 120 Bruker). Magnetic resonance imaging was performed using a 1.5 T Signa GE system and surface or knee coils. Inversion-recovery pulse sequences (TE 11 ms/TR 1000 ms/TI 50-600 ms) were used for T1 measurements. […] Magnetic resonance signal intensity was measured using region-of-interest approach and 16-bit TIFF images. Mean pixel values were compared using a Student t-test.

methyl-dopamine: the “influence of added equimolar competitor on gadolinium relaxivity” value (“influence of added equimolar competitor” below) in the data set on peroxidase [1] is reported as “did not influence gadolinium relaxivity”.

On to “hydroxytyraminyl-DOTA(Gd) [Substrate II]”, for which, in data set [2], the “difference in T1 relaxation time of substrate solutions before and after Chelex-100 treatment” value is reported as “No difference”. Besides, in the data set with peroxidase [3], the “pseudo-first order kinetic constant k1app” value is 0.013 s⁻¹. In data set [4], the “antibody fragment detected at threshold (sensitivity of MRAMP assay)” value is 1 ng. Moreover, the “raise of 1/T1 and 1/T2 after addition of the enzyme” value in the data set with peroxidase [5] (0.47 T) was determined as 3.5 fold. In addition, the “r1, peroxidase” value came out at 11.50 mM⁻¹ s⁻¹ in the data set with peroxidase [5] (0.47 T (20 MHz)) and 14.1 mM⁻¹ s⁻¹ in the data set with peroxidase [5] (1.5 T (63 MHz)). In addition, the “r1, control” value with peroxidase [5] (0.47 T (20 MHz)) is 3.75 mM⁻¹ s⁻¹; in the data set with peroxidase [5] (1.5 T (63 MHz)), 5.2 mM⁻¹ s⁻¹.

As to “tyramine-[1,4,7,10-tetraazacyclododecane-N,N′,N″,N′″-tetraacetic acid, gadolinium salt] [Substrate I]”, the “difference in T1 relaxation time of substrate solutions before and after Chelex-100 treatment” value in data set [2] is “No difference”. Further, in the data set with peroxidase [3], the “pseudo-first order kinetic constant k1app” value amounted to 0.0125 s⁻¹. The “raise of 1/T1 and 1/T2 after addition of the enzyme” value in the data set on peroxidase [5] (0.47 T) was determined as 2 fold; in the data set with peroxidase [5] (1.5 T), 2.7 fold. Also, the “r1, peroxidase” value in the data set on peroxidase [5] (0.47 T (20 MHz)) turned out to be 7.10 mM⁻¹ s⁻¹; in the data set on peroxidase [5] (1.5 T (63 MHz)) it was 10.1 mM⁻¹ s⁻¹. Further, the “r1, control” value with peroxidase [5] (0.47 T (20 MHz)) turned out to be 3.30 mM⁻¹ s⁻¹; in the data set on peroxidase [5] (1.5 T (63 MHz)), 4.5 mM⁻¹ s⁻¹.

Consider `N[C@@H](Cc1ccc(O)cc1)C(=O)O` [tyrosine], for which, in the data set with peroxidase [1], the “influence of added equimolar competitor” value is “did not influence gadolinium relaxivity”.

As to `NCCc1ccc(O)c(O)c1` [dopamine], the “influence of added equimolar competitor” value in the data set with peroxidase [1] is recorded as “did not influence gadolinium relaxivity”.

Turning to `NCCc1ccc(O)cc1` [tyramine], in the data set on peroxidase [1], the “influence of added equimolar competitor” value is listed as “did not influence gadolinium relaxivity”.
